The target in experiment [1] is T1, Eukaryotic translation initiation factor 4E (Homo sapiens, UniProt P06730). Put plainly: Binding affinity to N-terminal 10His-tagged m7GDP-bound recombinant human eIF4E expressed in Escherichia coli BL21 (DE3) cells assessed as dissociation constant at 25 degreeC by surface plasmon resonance analysis. A general note: Surface plasmon resonance follows binding to a sensor surface in real time, without labels.

Experiment [2] concerns the target T1, Eukaryotic translation initiation factor 4E. Put plainly: Binding affinity to N-terminal 10His-tagged m7GDP-bound recombinant human eIF4E expressed in Escherichia coli BL21 (DE3) cells assessed as dissociation constant at 25 degreeC in presence 225 to 1000 mM of NaCl by surface plasmon resonance analysis.

T1 sequence (P06730 whole entry): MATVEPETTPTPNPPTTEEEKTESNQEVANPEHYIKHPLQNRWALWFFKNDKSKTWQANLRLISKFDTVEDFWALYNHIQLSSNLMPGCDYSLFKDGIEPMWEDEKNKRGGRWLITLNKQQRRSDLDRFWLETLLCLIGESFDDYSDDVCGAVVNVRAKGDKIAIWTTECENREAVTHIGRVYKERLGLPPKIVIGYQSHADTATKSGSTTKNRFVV

The Kd is the constant that tells how readily two partners part at equilibrium. In the case of Ac-KKRYSREQLLGL-NH2, the Kd in experiment [1] came to 123 nM. `CC(=O)N[C@@H](CCCCN)C(=O)N[C@@H](CCCCN)C(=O)N[C@@H](CCCNC(=N)N)C(=O)N[C@@H](Cc1ccc(O)cc1)C(=O)N[C@@H](CC(=O)O)C(=O)N[C@@H](CCCNC(=N)N)C(=O)N[C@@H](CCC(=O)O)C(=O)N[C@@H](Cc1ccccc1)C(=O)N[C@@H](CC(C)C)C(=O)N[C@@H](CC(C)C)C(=O)NCC(=O)N[C@@H](Cc1ccccc1)C(=O)N[C@@H](CCC(N)=O)C(=O)N[C@@H](Cc1ccccc1)C(N)=O`: in experiment [2], the Kd turned out to be 0.046 nM.

The values are drawn from BindingDB's records for doi:10.1021/acs.jmedchem.9b00068 (University of Michigan, 2019).
